The target in the experiment is T1, Glucose-6-phosphate dehydrogenase (camel liver G6PD) (Camelus dromedarius, UniProt G1EHI3).
T1 construct: native enzyme purified from camel liver (subunit 64 kDa, native 194 kDa)
Put plainly: enzyme inhibition kinetics of purified enzyme (Lineweaver-Burk, Hill plot, slope replot). Type of experiment: biochemical.

T1 sequence (G1EHI3 entry or part of it): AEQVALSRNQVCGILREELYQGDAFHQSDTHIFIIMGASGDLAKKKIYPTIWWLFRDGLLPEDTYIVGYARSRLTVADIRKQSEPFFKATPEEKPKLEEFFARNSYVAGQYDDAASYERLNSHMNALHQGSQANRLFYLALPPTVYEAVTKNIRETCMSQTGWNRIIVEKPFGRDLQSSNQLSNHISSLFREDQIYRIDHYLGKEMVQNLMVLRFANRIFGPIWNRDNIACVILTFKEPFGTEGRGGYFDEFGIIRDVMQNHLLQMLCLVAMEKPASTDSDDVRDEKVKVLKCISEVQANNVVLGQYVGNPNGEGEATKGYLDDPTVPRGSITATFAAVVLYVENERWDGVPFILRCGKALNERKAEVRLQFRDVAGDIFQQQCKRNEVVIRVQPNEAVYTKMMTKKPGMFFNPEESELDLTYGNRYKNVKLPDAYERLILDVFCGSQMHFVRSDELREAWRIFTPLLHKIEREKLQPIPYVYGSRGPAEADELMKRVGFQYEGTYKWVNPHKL

Regarding `NC(=O)C1=CN([C@@H]2O[C@H](COP(=O)(O)OP(=O)(O)OC[C@H]3O[C@@H](n4cnc5c(N)ncnc54)[C@H](OP(=O)(O)O)[C@@H]3O)[C@@H](O)[C@H]2O)C=CC1` [NADPH], the affinity corresponds to a Ki of 35 µM.

The values are drawn from article PMC4290037, “Purification and Characterization of Glucose-6-Phosphate Dehydrogenase from Camel Liver” (Enzyme Research, 2014).
